Measured values reported in PubChem BioAssay (NCI).
Several values for one entry are separate records, joined by “and”; a condition that tells them apart may be missing. Identical values can stand only once.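 Cultured in 96-well plates, cells were exposed to test compound for 48 hours across five concentrations. The concentration for 50% growth inhibition is given as GI50. TGI denotes the concentration required for complete inhibition of growth.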

How the values were obtained:
Assay in all cases: inhibition of tumour cell growth, NCI panel, 48 h
SK-MEL-28 melanoma = tested on: SK-MEL-28 melanoma
RXF 393 renal = tested on: RXF 393 renal
SK-MEL-5 melanoma = tested on: SK-MEL-5 melanoma
HOP-62 NSCLC = tested on: HOP-62 NSCLC
TK-10 renal = tested on: TK-10 renal
SNB-19 CNS = tested on: SNB-19 CNS
U251 CNS = tested on: U251 CNS
CAKI-1 renal = tested on: CAKI-1 renal
PC-3 prostate = tested on: PC-3 prostate
UACC-62 melanoma = tested on: UACC-62 melanoma

Cn1c(-c2cccs2)cc(-c2ccsc2)c1-c1ccsc1
TGI (SK-MEL-28 melanoma): > 100 µM
TGI (RXF 393 renal): > 100 µM
TGI (SK-MEL-5 melanoma): > 100 µM
TGI (HOP-62 NSCLC): > 100 µM
TGI (TK-10 renal): > 100 µM
TGI (SNB-19 CNS): > 100 µM
TGI (U251 CNS): > 100 µM
TGI (CAKI-1 renal): > 100 µM
TGI (PC-3 prostate): > 100 µM
TGI (UACC-62 melanoma): > 100 µM

COc1ccc(C2CCc3c(cnc4nc(N)nc(N)c34)C2)cc1 (configuration not stated)
TGI (SK-MEL-28 melanoma): > 100 µM
TGI (RXF 393 renal): 42.6 µM
TGI (SK-MEL-5 melanoma): > 100 µM
TGI (HOP-62 NSCLC): 65 µM
TGI (TK-10 renal): 36 µM
TGI (SNB-19 CNS): > 100 µM
TGI (U251 CNS): > 100 µM
TGI (CAKI-1 renal): > 100 µM
TGI (PC-3 prostate): > 100 µM
TGI (UACC-62 melanoma): > 100 µM

Cc1cccc2c1C(=O)/C(=C/c1ccccc1C(=O)O)C2
TGI (SK-MEL-28 melanoma): > 100 µM
TGI (RXF 393 renal): > 100 µM
TGI (SK-MEL-5 melanoma): > 100 µM
TGI (HOP-62 NSCLC): > 100 µM
TGI (TK-10 renal): > 100 µM
TGI (SNB-19 CNS): > 100 µM
TGI (U251 CNS): > 100 µM
TGI (CAKI-1 renal): > 100 µM
TGI (PC-3 prostate): > 100 µM
TGI (UACC-62 melanoma): > 100 µM

NC(=O)c1ccc(S(=O)(=NS(=O)(=O)c2ccccc2)c2ccc(C(N)=O)cc2)cc1
TGI (SK-MEL-28 melanoma): > 100 µM
TGI (RXF 393 renal): > 100 µM
TGI (SK-MEL-5 melanoma): > 100 µM
TGI (HOP-62 NSCLC): > 100 µM
TGI (TK-10 renal): > 100 µM
TGI (SNB-19 CNS): > 100 µM
TGI (U251 CNS): > 100 µM
TGI (CAKI-1 renal): > 100 µM
TGI (PC-3 prostate): > 100 µM
TGI (UACC-62 melanoma): > 100 µM

COc1nc2ncc([C@@H](O)[C@H](O)CO)nc2c(=O)[nH]1
TGI (SK-MEL-28 melanoma): > 100 µM
TGI (RXF 393 renal): > 100 µM
TGI (SK-MEL-5 melanoma): > 100 µM
TGI (HOP-62 NSCLC): > 100 µM
TGI (TK-10 renal): > 100 µM
TGI (SNB-19 CNS): > 100 µM
TGI (U251 CNS): > 100 µM
TGI (CAKI-1 renal): > 100 µM
TGI (PC-3 prostate): > 100 µM
TGI (UACC-62 melanoma): > 100 µM

COc1ccc2c(-c3csc(-c4c[nH]c5ccccc45)n3)c[nH]c2c1
TGI (SK-MEL-28 melanoma): > 81.6 µM
TGI (RXF 393 renal): 17.9 µM
TGI (SK-MEL-5 melanoma): 30.6 µM
TGI (HOP-62 NSCLC): 49.2 µM
TGI (TK-10 renal): 23.5 µM
TGI (SNB-19 CNS): > 100 µM
TGI (U251 CNS): 29.8 µM
TGI (CAKI-1 renal): 32.8 µM
TGI (PC-3 prostate): 39.9 µM
TGI (UACC-62 melanoma): > 94.8 µM

CC1C/C(=C\c2ccc(O)c(O)c2)C(=O)/C(=C/c2ccc(O)c(O)c2)C1 (configuration not stated)
TGI (SK-MEL-28 melanoma): 20.3 µM
TGI (RXF 393 renal): 14.4 µM
TGI (SK-MEL-5 melanoma): 13.7 µM
TGI (HOP-62 NSCLC): 24.4 µM
TGI (TK-10 renal): > 100 µM
TGI (SNB-19 CNS): 22.5 µM
TGI (U251 CNS): 18.1 µM
TGI (CAKI-1 renal): 18.1 µM
TGI (PC-3 prostate): 29.9 µM
TGI (UACC-62 melanoma): 13.6 µM

Cc1cc(C)c(N)c(CO)c1
TGI (SK-MEL-28 melanoma): > 100 µM
GI50 (RXF 393 renal): > 100 µM and 32.3 µM
TGI (RXF 393 renal): > 100 µM
TGI (SK-MEL-5 melanoma): > 100 µM
TGI (HOP-62 NSCLC): > 100 µM
GI50 (TK-10 renal): 2.61 µM and 6.9 µM
TGI (TK-10 renal): 18.7 µM and > 38.5 µM
TGI (SNB-19 CNS): > 100 µM
TGI (U251 CNS): > 100 µM
TGI (CAKI-1 renal): > 32.1 µM and 27.5 µM
TGI (PC-3 prostate): > 100 µM
TGI (UACC-62 melanoma): > 90.2 µM

CCOC(=O)C1=C(C)N(c2ccc(Cl)cc2)C2(O)C=CC(=O)C3C(=O)N(c4ccccc4)C(=O)C132 (configuration not stated)
TGI (SK-MEL-28 melanoma): 3.06 µM
TGI (RXF 393 renal): 3.31 µM
TGI (SK-MEL-5 melanoma): 3.47 µM
TGI (HOP-62 NSCLC): 4.19 µM
TGI (TK-10 renal): 3.49 µM
TGI (SNB-19 CNS): 8.1 µM
TGI (U251 CNS): 5.39 µM
TGI (CAKI-1 renal): 4.72 µM
TGI (PC-3 prostate): 3.49 µM
TGI (UACC-62 melanoma): 3.63 µM

C[S+](C)C1(c2ccccc2)C(=O)c2ccccc2C1=O
TGI (SK-MEL-28 melanoma): > 100 µM
TGI (RXF 393 renal): > 100 µM
TGI (SK-MEL-5 melanoma): > 53.5 µM
TGI (HOP-62 NSCLC): > 100 µM
TGI (TK-10 renal): > 100 µM
TGI (SNB-19 CNS): > 100 µM
TGI (U251 CNS): > 66.3 µM
TGI (CAKI-1 renal): > 100 µM
TGI (PC-3 prostate): > 100 µM
TGI (UACC-62 melanoma): > 62.7 µM

CO/C=C(/C(=O)OC)c1ccccc1[C@H]1C[C@@H]1c1ccccc1
TGI (SK-MEL-28 melanoma): 64.2 µM
TGI (RXF 393 renal): > 100 µM
TGI (SK-MEL-5 melanoma): 20.8 µM
TGI (HOP-62 NSCLC): > 100 µM
TGI (TK-10 renal): > 100 µM
TGI (SNB-19 CNS): > 100 µM
TGI (U251 CNS): > 100 µM
TGI (CAKI-1 renal): 52.6 µM
TGI (PC-3 prostate): > 100 µM
TGI (UACC-62 melanoma): 37.2 µM

O=C1CCc2c(sc3ncnc(Nc4cccc(Br)c4)c23)C1
TGI (SK-MEL-28 melanoma): 52.6 µM
TGI (RXF 393 renal): 7.51 µM
TGI (SK-MEL-5 melanoma): 3.67 µM
TGI (HOP-62 NSCLC): 18.7 µM
TGI (TK-10 renal): 14.5 µM
TGI (SNB-19 CNS): 19.2 µM
TGI (U251 CNS): 9.02 µM
TGI (CAKI-1 renal): 12.5 µM
TGI (PC-3 prostate): 10.3 µM
TGI (UACC-62 melanoma): 11.1 µM

CSC(=N/N=C(\C)c1ccc(S(=O)(=O)N(C)c2ccccc2)cc1)SC
TGI (SK-MEL-28 melanoma): > 100 µM
TGI (RXF 393 renal): > 100 µM
TGI (SK-MEL-5 melanoma): > 100 µM
TGI (HOP-62 NSCLC): > 100 µM
TGI (TK-10 renal): > 100 µM
TGI (SNB-19 CNS): > 100 µM
TGI (U251 CNS): > 100 µM
TGI (CAKI-1 renal): > 100 µM
TGI (PC-3 prostate): > 100 µM
TGI (UACC-62 melanoma): > 100 µM

CCOC(=O)/C=C/C(Br)=C(Br)/C=C/C(=O)OCC
TGI (SK-MEL-28 melanoma): 33.4 µM
TGI (RXF 393 renal): 24.9 µM
TGI (SK-MEL-5 melanoma): 27.7 µM
TGI (HOP-62 NSCLC): 36.7 µM
TGI (TK-10 renal): 28.1 µM
TGI (SNB-19 CNS): 33.6 µM
TGI (U251 CNS): 27.9 µM
TGI (CAKI-1 renal): 13.9 µM
TGI (PC-3 prostate): 28 µM
TGI (UACC-62 melanoma): 30.9 µM

NS(=O)(=O)c1ccc(NS(=O)(=O)c2ccc(NC(=O)N(c3ccccc3)c3ccccc3)cc2)cc1
TGI (SK-MEL-28 melanoma): > 100 µM
TGI (RXF 393 renal): 80.9 µM
TGI (SK-MEL-5 melanoma): > 100 µM
TGI (HOP-62 NSCLC): > 100 µM
TGI (TK-10 renal): > 100 µM
TGI (SNB-19 CNS): > 100 µM
TGI (U251 CNS): > 100 µM
TGI (CAKI-1 renal): > 100 µM
TGI (PC-3 prostate): > 100 µM
TGI (UACC-62 melanoma): > 100 µM

CC(=O)N1C(=O)/C(=C\C(=O)c2ccc(Cl)cc2)c2ccccc21
TGI (SK-MEL-28 melanoma): 35.8 µM
TGI (RXF 393 renal): 32.6 µM
TGI (SK-MEL-5 melanoma): 39.8 µM
TGI (HOP-62 NSCLC): 41.2 µM
TGI (TK-10 renal): 30.5 µM
TGI (SNB-19 CNS): > 57.2 µM
TGI (U251 CNS): 37.2 µM
TGI (CAKI-1 renal): 27.6 µM
TGI (PC-3 prostate): 19.6 µM
TGI (UACC-62 melanoma): 28.6 µM
